The record followed here is PubChem BioAssay (NCI).

“And” between values parts separate entries of the source, which are not always exact repeats. Equal entries are not always repeated.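 Cells were grown in 96-well plates and exposed to each compound for 48 hours at five concentrations; endpoints were interpolated linearly between bracketing concentrations, or set to the highest concentration if not reached. GI50 = concentration required for 50% inhibition of growth. At the TGI there is no net growth.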 Where a SMILES comes first, the peptide text is derived from it. The star is where a group is joined. Cbz = O=C(OCc1ccccc1)*; OBn = c1ccc(CO*)cc1

Some test systems named below: KM12 colon; HCC-2998 colon; NCI/ADR-RES ovarian; OVCAR-8 ovarian; IGROV1 ovarian; SF-268 CNS; BT-549 breast; UO-31 renal; DU-145 prostate; HOP-92 NSCLC.
What all share (test): NCI-60 cell line screen, 48 h

On to `CCc1ccc2[nH]c(O)c(-c3[nH]c4ccccc4c3N=O)c2c1`, for which the TGI with KM12 colon was determined as 4.51 µM; in the assay on HCC-2998 colon, 8.52 µM; with NCI/ADR-RES ovarian it was 48.8 µM; in the assay with OVCAR-8 ovarian, 32.2 µM; in the assay with IGROV1 ovarian it was 18.6 µM; in the assay on SF-268 CNS it was 22.3 µM. For the same molecule, the figures for the TGI with BT-549 breast, in the assay on UO-31 renal and in the assay with DU-145 prostate were 20.6 µM, 12 µM and 22.5 µM, respectively.

Turning to `O=C1C(Br)=CC2(C=C1Br)CCNC1=C2C(=O)c2cccnc2C1=O`, the TGI with KM12 colon was 35.8 µM; in the assay with HCC-2998 colon, 31.9 µM; in the assay with NCI/ADR-RES ovarian, 49.1 µM; in the assay with OVCAR-8 ovarian, 32.4 µM; in the assay with IGROV1 ovarian, 21.8 µM; in the assay on SF-268 CNS it was 32.2 µM. For the same molecule, the results for the TGI with HOP-92 NSCLC, in the assay on UO-31 renal and with DU-145 prostate were 30.2 µM, 68.5 µM and 23.5 µM, respectively.

`O=C(c1ccccc1)c1ccc2nc(-c3c(Cl)c(Cl)c(Cl)c(Cl)c3C(=O)N/N=C/c3ccccc3)[nH]c2c1`: the TGI in the assay on KM12 colon was above 100 µM; with NCI/ADR-RES ovarian, 80 µM; in the assay on OVCAR-8 ovarian, above 100 µM; with IGROV1 ovarian, above 100 µM; in the assay with SF-268 CNS it was above 100 µM; with HOP-92 NSCLC it was above 100 µM. Further, the TGI with BT-549 breast, in the assay with UO-31 renal and with DU-145 prostate was above 100 µM throughout.

On to `COC(=O)n1c(=O)n(-c2ccccc2)c(=O)n1C(=O)OC`, for which the TGI in the assay on KM12 colon, with HCC-2998 colon, with NCI/ADR-RES ovarian, in the assay with OVCAR-8 ovarian, in the assay with IGROV1 ovarian and in the assay with SF-268 CNS was above 100 µM in each case. In addition, the TGI in the assay on BT-549 breast, with UO-31 renal and in the assay with DU-145 prostate was above 100 µM in each case.

Regarding `O=C(NC1CCN(Cc2ccccc2)CC1)c1cc2nc(-c3ccc(Cl)s3)cc(C(F)(F)F)n2n1`, the GI50 in the assay on NCI/ADR-RES ovarian is above 100 µM; in the assay with IGROV1 ovarian, above 100 µM; in the assay on SF-268 CNS, above 100 µM; in the assay with HOP-92 NSCLC, 15.4 µM; in the assay on BT-549 breast, above 100 µM; with UO-31 renal, above 100 µM. Also, the GI50 with DU-145 prostate is above 100 µM. The TGI in the assay with NCI/ADR-RES ovarian, with IGROV1 ovarian, in the assay on SF-268 CNS, with HOP-92 NSCLC, with BT-549 breast and with UO-31 renal was above 100 µM each time. In addition, the TGI with DU-145 prostate was above 100 µM.

`CNC(=O)c1cc(NC(=O)N(CCC#N)CCN(C(=O)N[C@@H](Cc2ccccc2)C(=O)N[C@@H](CC(C)C)C(=O)NC)c2ccccc2)ccc1OC`: the TGI in the assay on KM12 colon was above 100 µM; with NCI/ADR-RES ovarian, above 100 µM; in the assay with OVCAR-8 ovarian it was above 100 µM; in the assay on IGROV1 ovarian, above 73.2 µM; in the assay with SF-268 CNS, above 65.7 µM; in the assay on HOP-92 NSCLC, 71.7 µM. The TGI in the assay on BT-549 breast, in the assay with UO-31 renal and in the assay with DU-145 prostate was above 100 µM throughout.

On to `CC(=O)OC(OC(C)=O)n1cc(C=O)c2ccccc21`, for which the TGI in the assay on HCC-2998 colon, in the assay on NCI/ADR-RES ovarian, in the assay on OVCAR-8 ovarian, with UO-31 renal and in the assay on DU-145 prostate was above 100 µM throughout.

Consider `O=C1NC2(CCCCC2)C2CCCCCC12` (stereo not drawn), for which the TGI in the assay on KM12 colon, in the assay with HCC-2998 colon, with IGROV1 ovarian, in the assay with SF-268 CNS and with UO-31 renal was above 100 µM throughout.

`c1ccc2c(c1)nc(NC1CCCC1)c1[nH]c(C3CCCC3)nc12`: the TGI in the assay with KM12 colon turned out to be 21.3 µM; in the assay on HCC-2998 colon it was 17.6 µM; in the assay on OVCAR-8 ovarian, 24.3 µM; with IGROV1 ovarian, 46 µM; in the assay with SF-268 CNS, 47 µM; in the assay on HOP-92 NSCLC, 37.2 µM. This molecule had a TGI in the assay with UO-31 renal of 63 µM.

On to `COC(=O)C(Cc1ccc(O)cc1)NC(=O)C(CC(=O)OCc1ccccc1)NC(=O)OCc1ccccc1` (stereo not drawn) (Cbz-Asp(OBn)-Tyr-OMe; configuration not given here), for which the TGI in the assay on KM12 colon was 39.5 µM; in the assay on HCC-2998 colon, 31.5 µM; in the assay with OVCAR-8 ovarian, 35.6 µM; in the assay with IGROV1 ovarian, 31.1 µM; in the assay with HOP-92 NSCLC, above 100 µM; with BT-549 breast, 37.4 µM. In the assay with UO-31 renal, the TGI is 49 µM.

As for `CCOC(=O)CNC(=O)C(C)NC(=O)C(NC(=O)CC(c1ncc[nH]1)c1ncc[nH]1)C(C)CC` (stereo not drawn), the TGI with KM12 colon, with HCC-2998 colon, with NCI/ADR-RES ovarian, in the assay on OVCAR-8 ovarian, in the assay on IGROV1 ovarian and in the assay on SF-268 CNS was above 100 µM each time. Further, the TGI in the assay with HOP-92 NSCLC, with UO-31 renal and with DU-145 prostate was above 100 µM throughout.

As to `Oc1ccc(SCc2cc(O)c(O)c(O)c2)cc1`, the TGI in the assay with KM12 colon was 42.6 µM; in the assay on NCI/ADR-RES ovarian, 58.5 µM; in the assay with OVCAR-8 ovarian, 49.6 µM; in the assay on IGROV1 ovarian, 57.8 µM; in the assay with SF-268 CNS it was above 100 µM; in the assay on HOP-92 NSCLC, above 100 µM. Also, the values for the TGI in the assay with BT-549 breast, in the assay on UO-31 renal and in the assay on DU-145 prostate were 85.9 µM, above 100 µM and above 100 µM, respectively.

Take `NC(=O)C#CC(N)=O`: the GI50 in the assay on KM12 colon was 38.9 µM and 54.1 µM and > 100 µM; in the assay on NCI/ADR-RES ovarian, 8.22 µM; with OVCAR-8 ovarian it was 8.34 µM and 19.2 µM. For the same molecule, the TGI was 164 µM and 161 µM and > 100 µM with KM12 colon; 179 µM and > 100 µM in the assay on HCC-2998 colon; 25.9 µM and 18 µM in the assay on NCI/ADR-RES ovarian; 23.4 µM and 47.5 µM in the assay with OVCAR-8 ovarian; 213 µM and 189 µM and > 100 µM in the assay on IGROV1 ovarian; 5.51 µM and 35.7 µM with HOP-92 NSCLC. Besides, the TGI in the assay with UO-31 renal was 63.4 µM and > 81.1 µM.

On to `Fc1ccc(N=NN2CCCC2)cc1`, for which the TGI in the assay on KM12 colon, with HCC-2998 colon, with IGROV1 ovarian, in the assay with SF-268 CNS, in the assay on HOP-92 NSCLC and in the assay with BT-549 breast was above 100 µM throughout. For the same molecule, the TGI in the assay with UO-31 renal and with DU-145 prostate was above 100 µM in each case.

`O=c1c(C=Nc2ccc([N+](=O)[O-])cc2)c(O)n(-c2ccccc2)c(=O)n1-c1ccccc1`: the TGI in the assay on KM12 colon, with HCC-2998 colon, with NCI/ADR-RES ovarian, in the assay with OVCAR-8 ovarian, in the assay on IGROV1 ovarian and with SF-268 CNS was above 100 µM each time. For the same molecule, the TGI in the assay on HOP-92 NSCLC, with BT-549 breast and in the assay on UO-31 renal was above 100 µM each time.
